Reference: paper PMC7182600 (Influenza and Other Respiratory Viruses, 2020)
“And” between values parts separate entries of the source, which are not always exact repeats. Equal entries are not always repeated.

Molecular target: NA of B/Tokyo/UT‐AC032/2018 (G407S) (Influenza B virus, UniProt A0A1W5M8K7, G407S)
Type: biochemical

Compound | susceptibility to NA inhibitor (in words) | fold differences in IC50 | IC50 (read-out: IC50 values of NA inhibitors) [nM]
CC(=O)N[C@H]1[C@H]([C@H](O)[C@H](O)CO)OC(C(=O)O)=C[C@@H]1N=C(N)N [Zanamivir] | marked reduction in susceptibility | – | –
[H]/N=C(\N)N[C@H]1C=C(C(=O)O)O[C@@H]([C@H](OC)[C@H](O)CO)[C@@H]1NC(C)=O [Laninamivir] | marked reduction in susceptibility | – | –
Peramivir | marked reduction in susceptibility | 64 fold and 32.1 ± 12.9 (64.2) fold | 32.1
CCC(CC)O[C@@H]1C=C(C(=O)O)C[C@H](N)[C@H]1NC(C)=O [Oseltamivir carboxylate] | moderately reduced susceptibility | – | –
